Some results are limits rather than exact numbers.

Series [1] deals with HBV. Nature of the series: Anti-HBV activity, HepG2.117 inducibly HBV producing cell line (Tet-off), intracellular HBV DNA by realtime PCR. The series is classed as cell-based. Conditions: Hepatitis B virus, HepG2.117, 72 h, HepG2.117 cells, 3 days of treatment, intracellular HBV DNA; read-out: HepG2 117 EC50.
The subject of series [2] is HBV. The series is described as follows: Anti-HBV activity, HepG2.2.15 stable transfected cell line, HBV DNA from secreted virions by realtime PCR. The series is classed as cell-based. The settings on record: Hepatitis B virus, HepG2.2.15, 144 h, HepG2.2.15 cells, 6 days of treatment, HBV DNA from secreted virions; read-out: HepG2 2.15 EC50.
The nature of series [3]: Cytotoxicity in HepG2 cells, Resazurin viability assay. Conditions: human, HepG2 cells, HepG2 4 days CC50 (μM), incubated for 4 days, Resazurin assay. On the technique in general: The colour change of resazurin is a common sign of viable cells or microbes.

Usually EC50 stands for the concentration needed to bring the measured effect to its halfway point. One may read the CC50 as the concentration giving 50% cytotoxicity. A low value points to greater toxicity to the cells. Take `Cn1cc(S(=O)(=O)NC2CCC(F)(F)C2)cc1C(=O)Nc1cc(F)c(F)c(Cl)c1` (racemic) [Compound 166, N-(3-Chloro-4,5-difluorophenyl)-4-[(3,3-difluorocyclopentyl)sulfamoyl]-1-methyl-1H-pyrrole-2-carboxamide]: the EC50 was 120 nM in the series on HBV [1] and 140 nM in the series with HBV [2]. Further, the CC50 at 4 days in series [3] was > 25 µM.

Take `CC(CC(F)(F)F)NS(=O)(=O)c1cc(C(=O)Nc2cc(F)c(F)c(Cl)c2)n(C)c1` (racemic) [Compound 169, N-(3-Chloro-4,5-difluorophenyl)-1-methyl-4-[(3,3,3-trifluoro-1-methylpropyl)sulfamoyl]-1H-pyrrole-2-carboxamide]: the EC50 in the series with HBV [1] was 70 nM; in the series on HBV [2] it was 120 nM. The molecule further yielded a CC50 at 4 days in series [3] of 11.2 µM.

With `Cc1cc(NC(=O)c2cc(S(=O)(=O)NC(C)(C)C(=O)O)cn2C)ccc1F` [Compound 61, 2-[[5-[(4-fluoro-3-methyl-phenyl)carbamoyl]-1-methyl-pyrrol-3-yl]-sulfonylamino]-2-methyl-propanoic acid], the EC50 in the series with HBV [1] is > 1000 nM. Moreover, in series [3], the CC50 at 4 days was > 25 µM.

In the case of `COCC(C)(NS(=O)(=O)c1cc(C(=O)Nc2cc(F)c(F)c(Cl)c2)n(C)c1)C(F)(F)F` (stereo not shown) [Compound 73, N-(3-chloro-4,5-difluoro-phenyl)-1-methyl-4-[[2,2,2-trifluoro-1-(methoxymethyl)-1-methyl-ethyl]sulfamoyl]pyrrole-2-carboxamide], the concentration giving a half-maximal response (EC50) in the series with HBV [1] was found to be 100 nM. In series [3], half-maximal cytotoxicity (CC50 at 4 days) was put at 14.1 µM.

`Cn1cc(S(=O)(=O)NC2(C)COC2)c(F)c1C(=O)Nc1ccc(F)c(Cl)c1` [Compound 108, N-(3-Chloro-4-fluorophenyl)-3-fluoro-1-methyl-4-[(3-methyloxetan-3-yl)sulfamoyl]-1H-pyrrole-2-carboxamide]: the EC50 in the series on HBV [1] came to 10 nM. In addition, the cytotoxic concentration (CC50) at 4 days in series [3] is > 25 µM.

In the case of `CC[C@H](NS(=O)(=O)c1cn(C)c(C(=O)Nc2ccc(F)c(C#N)c2)c1F)C(F)(F)F` [Compound 284, N-(3-cyano-4-fluoro-phenyl)-3-fluoro-1-methyl-4-[[(1S)-1-(trifluoro-methyl)propyl]sulfamoyl]pyrrole-2-carboxamide], the EC50 in the series on HBV [1] was found to be 9 nM. Moreover, the CC50 at 4 days in series [3] is > 25 µM.

For `C[C@@H](NS(=O)(=O)c1cn(C)c(C(=O)Nc2ccc(F)cc2)c1F)C(F)(F)F` [Compound 285, 3-fluoro-N-(4-fluorophenyl)-1-methyl-4-[[(1R)-2,2,2-trifluoro-1-methyl-ethyl]sulfamoyl]pyrrole-2-carboxamide], the half-maximal effective concentration (EC50) in the series on HBV [1] was determined as 7 nM. Moreover, the CC50 at 4 days in series [3] was > 25 µM.

As for `C[C@@H](NS(=O)(=O)c1cn(C)c(C(=O)Nc2ccc(F)c(C(F)F)c2)c1F)C(F)(F)F` [Compound 286, N-[3-(difluoromethyl)-4-fluoro-phenyl]-3-fluoro-1-methyl-4-[[(1R)-2,2,2-trifluoro-1-methyl-ethyl]sulfamoyl]pyrrole-2-carboxamide], in the series on HBV [1], the EC50 stood at 5 nM. The molecule further gave a CC50 at 4 days in series [3] of 21.9 µM.

Regarding `CC[C@@H](NS(=O)(=O)c1cn(C)c(C(=O)Nc2ccc(F)c(C#N)c2)c1Cl)C(F)(F)F` [Compound 290, 3-chloro-N-(3-cyano-4-fluoro-phenyl)-1-methyl-4-[[(1R)-1-(trifluoro-methyl)propyl]sulfamoyl]pyrrole-2-carboxamide], in the series on HBV [1], the EC50 came to 20 nM. Besides, the CC50 at 4 days in series [3] is > 25 µM.

`C[C@@H](NS(=O)(=O)c1cn(C)c(C(=O)Nc2ccc(F)c(C#N)c2)c1Br)C(F)(F)F` [Compound 292, 3-bromo-N-(3-cyano-4-fluoro-phenyl)-1-methyl-4-[[(1R)-2,2,2-trifluoro-1-methyl-ethyl]sulfamoyl]pyrrole-2-carboxamide]: the EC50 in the series on HBV [1] was found to be 30 nM. Further, in series [3], the CC50 at 4 days came to 15.5 µM.

On to `Cc1c(S(=O)(=O)N[C@H](C)C(F)(F)F)c(F)c(C(=O)Nc2ccc(F)c(C#N)c2)n1C` [Compound 299, N-(3-cyano-4-fluoro-phenyl)-3-fluoro-1,5-dimethyl-4-[[(1R)-2,2,2-trifluoro-1-methyl-ethyl]sulfamoyl]pyrrole-2-carboxamide], for which the EC50 in the series on HBV [1] amounted to 9 nM. The CC50 at 4 days in series [3] is > 25 µM.

Take `C[C@@H](NS(=O)(=O)c1c(Cl)c(C(=O)Nc2ccc(F)c(C#N)c2)n(C)c1Br)C(F)(F)F` [Compound 300, 5-bromo-3-chloro-N-(3-cyano-4-fluoro-phenyl)-1-methyl-4-[[(1R)-2,2,2-trifluoro-1-methyl-ethyl]sulfamoyl]pyrrole-2-carboxamide]: the EC50 in the series with HBV [1] worked out at 8 nM. In series [3], this molecule came in with a CC50 at 4 days of 14.2 µM.

For `C[C@@H](NS(=O)(=O)c1c(F)c(C(=O)Nc2ccc(F)c(C#N)c2)n(C)c1Br)C(F)(F)F` [Compound 301, 5-bromo-N-(3-cyano-4-fluoro-phenyl)-3-fluoro-1-methyl-4-[[(1R)-2,2,2-trifluoro-1-methyl-ethyl]sulfamoyl]pyrrole-2-carboxamide], the EC50 in the series on HBV [1] was 7 nM. Besides, the CC50 at 4 days in series [3] is > 25 µM.

In the case of `C[C@@H](NS(=O)(=O)c1c(Cl)c(C(=O)Nc2ccc(F)c(C#N)c2)n(C)c1C1CC1)C(F)(F)F` [Compound 302, 3-chloro-N-(3-cyano-4-fluoro-phenyl)-5-cyclopropyl-1-methyl-4-[[(1R)-2,2,2-trifluoro-1-methyl-ethyl]sulfamoyl]pyrrole-2-carboxamide], the EC50 in the series on HBV [1] was determined as 30 nM. For the same molecule, the half-maximal cytotoxic concentration (CC50) at 4 days in series [3] is > 25 µM.

For the molecule `CC(C)c1c(S(=O)(=O)N[C@H](C)C(F)(F)F)cn(C)c1C(=O)Nc1ccc(F)c(C#N)c1` [Compound 303, N-(3-cyano-4-fluoro-phenyl)-3-isopropyl-1-methyl-4-[[(1R)-2,2,2-trifluoro-1-methyl-ethyl]sulfamoyl]pyrrole-2-carboxamide], in the series with HBV [1], the EC50 was > 12500 nM. For the same molecule, in series [3], the CC50 at 4 days is > 25 µM.

For the molecule `C[C@@H](NS(=O)(=O)c1c(F)c(C(=O)Nc2ccc(F)c(C#N)c2)n(C)c1C1CC1)C(F)(F)F` [Compound 304, N-(3-cyano-4-fluoro-phenyl)-5-cyclopropyl-3-fluoro-1-methyl-4-[[(1R)-2,2,2-trifluoro-1-methyl-ethyl]-sulfamoyl]-pyrrole-2-carboxamide], the EC50 in the series with HBV [1] stood at 10 nM. Further, the CC50 at 4 days in series [3] was > 25 µM.

With `Cn1cc(S(=O)(=O)NC2CCCC2)c(Cl)c1C(=O)Nc1ccc(F)c(C#N)c1` [Compound 307, 3-chloro-N-(3-cyano-4-fluoro-phenyl)-4-(cyclopentylsulfamoyl)-1-methyl-pyrrole-2-carboxamide], the half-maximal effective concentration (EC50) with HBV [1] was 30 nM. Moreover, the CC50 at 4 days in series [3] was > 25 µM.

On to `Cc1cc(NC(=O)c2c(Br)c(S(=O)(=O)N[C@H](C)C(F)(F)F)cn2C)ccc1F` [Compound 308, 3-bromo-N-(4-fluoro-3-methyl-phenyl)-1-methyl-4-[[(1R)-2,2,2-trifluoro-1-methyl-ethyl]sulfamoyl]pyrrole-2-carboxamide], for which the EC50 in the series with HBV [1] worked out at 10 nM. For the same molecule, in series [3], the 50% cytotoxic concentration (CC50) at 4 days is > 25 µM.

In the case of `C=Cc1c(S(=O)(=O)N[C@H](C)C(F)(F)F)c(F)c(C(=O)Nc2ccc(F)c(C#N)c2)n1C` [Compound 311, N-(3-cyano-4-fluoro-phenyl)-3-fluoro-1-methyl-4-[[(1R)-2,2,2-trifluoro-1-methyl-ethyl]sulfamoyl]-5-vinyl-pyrrole-2-carboxamide], the EC50 in the series with HBV [1] was found to be 60 nM. For the same molecule, the CC50 at 4 days in series [3] is > 25 µM.

With `C[C@@H](NS(=O)(=O)c1cn(C)c(C(=O)Nc2ccc(F)cc2F)c1F)C(F)(F)F` [Compound 312, N-(2,4-difluorophenyl)-3-fluoro-1-methyl-4-[[(1R)-2,2,2-trifluoro-1-methyl-ethyl]sulfamoyl]pyrrole-2-carboxamide], the concentration for a half-maximal effect (EC50) in the series on HBV [1] was determined as 60 nM. In addition, the CC50 at 4 days in series [3] is > 25 µM.

Regarding `C[C@@H](NS(=O)(=O)c1c(F)c(C(=O)Nc2ccc(F)c(C#N)c2F)n(C)c1Cl)C(F)(F)F` [Compound 314, 5-chloro-N-(3-cyano-2,4-difluoro-phenyl)-3-fluoro-1-methyl-4-[[(1R)-2,2,2-trifluoro-1-methyl-ethyl]sulfamoyl]pyrrole-2-carboxamide], the EC50 in the series with HBV [1] was determined as 7 nM. For the same molecule, the 50% cytotoxic concentration (CC50) at 4 days in series [3] was > 25 µM.

With `C[C@@H](NS(=O)(=O)c1c(F)c(C(=O)Nc2ccc(F)c(C#N)c2F)n(C)c1Br)C(F)(F)F` [Compound 315, 5-bromo-N-(3-cyano-2,4-difluoro-phenyl)-3-fluoro-1-methyl-4-[[(1R)-2,2,2-trifluoro-1-methyl-ethyl]sulfamoyl]pyrrole-2-carboxamide], in the series with HBV [1], the EC50 is 7 nM. For the same molecule, in series [3], the 50% cytotoxic concentration (CC50) at 4 days is > 25 µM.

For `C[C@@H](NS(=O)(=O)c1cn(C)c(C(=O)Nc2ccc(F)c(C#N)c2)c1F)C(C)(F)F` [Compound 317, N-(3-cyano-4-fluoro-phenyl)-4-[[(1R)-2,2-difluoro-1-methyl-propyl]sulfamoyl]-3-fluoro-1-methyl-pyrrole-2-carboxamide], the EC50 in the series on HBV [1] came out at 6 nM. In addition, the CC50 at 4 days in series [3] is > 25 µM.

For the molecule `C[C@H](NS(=O)(=O)c1cn(C)c(C(=O)Nc2ccc(F)c(C#N)c2)c1F)C(C)(F)F` [Compound 318, N-(3-cyano-4-fluoro-phenyl)-4-[[(1S)-2,2-difluoro-1-methyl-propyl]sulfamoyl]-3-fluoro-1-methyl-pyrrole-2-carboxamide], in the series with HBV [1], the EC50 is 19 nM. Moreover, in series [3], the CC50 at 4 days was > 25 µM.

In the case of `Cn1cc(S(=O)(=O)NC2(C(F)(F)F)CCC2)c(F)c1C(=O)Nc1ccc(F)c(C#N)c1` [Compound 319, N-(3-cyano-4-fluoro-phenyl)-3-fluoro-1-methyl-4-[[1-(trifluoromethyl)cyclobutyl]sulfamoyl]pyrrole-2-carboxamide], in the series with HBV [1], the EC50 was < 4 nM. In series [3], the CC50 at 4 days was > 25 µM.

(Values after US9884818B2, “Sulphamoylpyrrolamide derivatives and the use thereof as medicaments for the treatment of hepatitis B” (Janssen Sciences Ireland UC, priority 2013, dated 2018).)
